Data on nine molecules can be found in publication PMC8249445, “Complex effects of macrolide venturicidins on bacterial F-ATPases likely contribute to their action as antibiotic adjuvants” (Scientific Reports, 2021).

One may read the inhibition as the drop in the measured response relative to a control, in per cent. Usually Kd stands for the concentration at which binding is half-saturated. As usually defined, the Ki is a dissociation constant, usually derived from enzyme kinetics or from competition with a known ligand.

The subject of one series is mitoFOF1. Details: method as in PMID 124668. The conditions noted are these: cited from earlier work.
The target in series [1] is T1, FOF1-ATPase of WT E. coli membranes (Escherichia coli, UniProt P68699).
T1 construct: To express haploid levels of EcFOF1 containing WT-ε or ε88-stop; expressed in transfected cells; host or cells: E. coli strain XH1 (chromosomal atpC deletion) carrying pMBε1; inverted membrane vesicles
Put plainly: biochemical. The class given is biochemical. As to conditions: for ATPase activity during the last 3 min of assays: 0.1 mM DCCD alone (trace 1); for Ki: read-out: Ki (early inhibition). Here is the method:
ATP hydrolysis is enzyme-coupled to conversion of NADH to NAD^+, which results in decreased light absorbance; thus, a larger rate of ATP hydrolysis is indicated by a steeper downward slope. The system also rapidly regenerates ATP, minimizing the concentration of product ADP during the assay. Unless noted, assays were preincubated to establish a steady state hydrolysis rate (see “Methods”) before the ‘zero’ point of measurements.
(§1) Plasmid pXH302S, which encodes the WT atpC gene and expresses near haploid levels of the ε subunit, was subjected to fusion PCR mutagenesis to construct plasmid pMBε1, with an N-terminal affinity tag ([…]) added prior to the initial Met residue. To express the ε88-stop subunit, an AfeI-ScaI restriction fragment of WT pMBε1 was replaced by the analogous fragment from pH6ε88-stop[46]. To express haploid levels of EcFOF1 containing WT-ε or ε88-stop, the appropriate version of pMBε1 was transformed into E. coli strain XH1, which has a chromosomal deletion of the atpC gene for ε[54]. For these transformed strains, cultures were grown and inverted membrane vesicles (IMV) were prepared according to [55]. WT ε, with the same N-terminal His6-tag, was over-expressed from pH6ε and purified as described.
ATP hydrolysis by membrane vesicles was assayed spectrophotometrically[57] at 30 °C using an open-chamber, diode array spectrophotometer (Hewlett Packard 8453 UV–Vis) as described in[29]. The assay medium (1 ml per assay) contained 20 mM Mops/Tris, pH 8.0, 0.2 mM EDTA, 10 mM CH3COOK, 1 mM ATP, 3.2 mM Mg(CH3COO)2, 1 mM phosphoenolpyruvate, at least 0.3 mM NADH, 0.1 mg/ml pyruvate kinase, 0.1 mg/ml lactate dehydrogenase, 5 mM KCN, and 5 μM carbonyl cyanide 4-(trifluoromethoxy)-phenylhydrazone. […] To avoid interference of this increase with the changes of ATPase activity induced by venturicidins, unless indicated otherwise, measurement of ATPase activities were started 60 min after addition of membranes to the complete assay medium. […] To keep absorbance between 1.5 and 2 units after the 60-min preincubation, up to 0.2 mM additional NADH was added to the assay medium. In figures displaying activity traces, some traces are shifted vertically for visual clarity.

The target of the next series is F1. Set-up: method as in PMID 23400782. As to conditions: read-out: KD of ε dissociation from F1; cited from earlier work.
Series [2] addresses T2, E. coli membranes with FOF1 lacking the ε subunit's CTD (ε88-stop) (Escherichia coli, UniProt P68699).
T2 construct: To express haploid levels of EcFOF1 containing WT-ε or ε88-stop; expressed in transfected cells; host or cells: E. coli strain XH1 (chromosomal atpC deletion) carrying the ε88-stop version of pMBε1; inverted membrane vesicles
Put plainly: ATP hydrolysis by ε88-stop E. coli membranes, enzyme-coupled spectrophotometric assay. It is filed as biochemical.
Excerpt: We next investigated whether the ε-inhibited state of EcFOF1 also impacts interactions of ventA with the enzyme. The N-terminal domain (NTD) of ε is required for FOF1 assembly and functional coupling of F1 to FO in eukaryotic and bacterial species; the C-terminal domain (CTD) of ε can auto-inhibit FOF1 and isolated F1 from some bacteria and from chloroplasts, but the mitochondrial homolog (δ) is not inhibitory[39],[40]. Thus we measured the effects of ventA on ATPase activity of E. coli membranes expressing ε88-stop, which lacks the autoinhibitory εCTD (Fig. 3). From Table 1 (100% ATPase values), it is clear that selenite activates membrane ATPase more (fourfold) for ε88-stop than for WT (2.8-fold). This is because, without the inhibitory εCTD, more enzyme complexes shift to the MgADP-inhibited state, which can be activated by selenite. […] In contrast, early inhibition of ATPase by ventA has similar Ki values for WT and ε88-stop membranes in the absence (0.7 vs 0.5 μM) or in the presence of selenite (0.23 vs 0.09 μM).
as §1
(§2) ATP hydrolysis by membrane vesicles was assayed spectrophotometrically[57] at 30 °C using an open-chamber, diode array spectrophotometer (Hewlett Packard 8453 UV–Vis) as described in[29]. The assay medium (1 ml per assay) contained 20 mM Mops/Tris, pH 8.0, 0.2 mM EDTA, 10 mM CH3COOK, 1 mM ATP, 3.2 mM Mg(CH3COO)2, 1 mM phosphoenolpyruvate, at least 0.3 mM NADH, 0.1 mg/ml pyruvate kinase, 0.1 mg/ml lactate dehydrogenase, 5 mM KCN, and 5 μM carbonyl cyanide 4-(trifluoromethoxy)-phenylhydrazone. As noted before, the rate of ATP hydrolysis by membranes increases to a small degree during assays. This is due, at least in part, to dissociation of a small fraction of EcF1 and/or ε from the membranes, since the increase is inhibited by added ε (e.g., Fig. 5). To avoid interference of this increase with the changes of ATPase activity induced by venturicidins, unless indicated otherwise, measurement of ATPase activities were started 60 min after addition of membranes to the complete assay medium. This minimizes further increases in ATPase rate during control assays to < 15%. To keep absorbance between 1.5 and 2 units after the 60-min preincubation, up to 0.2 mM additional NADH was added to the assay medium. In figures displaying activity traces, some traces are shifted vertically for visual clarity.

Series [3] addresses T3, PaFOF1 in membranes from P. aeruginosa strain PAO1 (Pseudomonas aeruginosa, UniProt Q9HT15).
T3 construct: endogenous in cells; host or cells: P. aeruginosa strain PAO1, inverted membrane vesicles
The series can be described thus: ATP hydrolysis by P. aeruginosa PAO1 membranes, enzyme-coupled spectrophotometric assay. The class given is biochemical. The procedure: P. aeruginosa strain PAO1 was grown in LB medium at 37 °C as described. For preparation of IMV, final cultures used 1 L of LB per 2L baffled flask and were inoculated from an overnight culture at an initial OD600 ~ 0.025. Cultures were shaken at 250 rpm and monitored until they reached mid- to late-logarithmic growth phase (OD600, 1–1.4). Cultures were chilled and subsequent steps for cell lysis and isolation of IMV were done at 4 °C. Cells were sedimented by centrifugation (3,700 × g, 30 min). Cells from 1 to 2 L of culture (~ 2–3 g wet cells/L) were resuspended in 25–40 ml of STEM buffer (TEM buffer plus sucrose[55]), transferred to a 50 ml Oak Ridge tube, sedimented again (11,617 × g, 10 min), resuspended in 20–40 ml of STEM and frozen at -80 °C. Thawed cells were lysed by two sequential passages through an SLM-Aminco French pressure cell at ~ 16,000 psi, essentially as described for E. coli[55]; the pressure cell was enclosed in a clear biohazard bag (MiniGrip, IP2024B3T) during use to contain any aerosols formed. Unlysed cells and cell wall debris were removed by centrifugation (50 ml Oak Ridge tubes, 16,743 × g, 25 min): the supernate was diluted with MTGM7.5 buffer (50 mM MOPS-TRIS, 10%(v/v) glycerol, 5 mM Mg(CH3COO)2, pH 7.5) and centrifugation was repeated at least twice, recovering the supernate each time. The final supernatant lysate was stored at -80 °C. To isolate IMV, the cleared lysate was thawed quickly and diluted with MTGM7.5 as needed to fill 1 or 2 polycarbonate tubes for use in a Beckman Ti70 rotor. The IMV (membranes) were sedimented by ultracentrifugation (250,000 × g max) for 1 h, the membranes were resuspended in MTGM7.5 buffer to fill one Ti70 tube and ultracentrifugation was repeated for 45 min. The membranes were resuspended in a small volume of MTGM7.5 buffer (typically ≥ 10 mg membrane protein/ml) and homogenized manually (Potter–Elvehjem type). Small aliquots of the final membrane sample were quick-frozen in liquid nitrogen and stored at − 80 °C.
as §2

For a further series, the system named is S. aureus. Details: method as in PMID 28874470. The conditions noted are these: cited from earlier work.
In a further series the test system is E. coli membrane ATPase. As to conditions: read-out: half-maximal inhibitory concentration of venturicidin; obtained from earlier data; more divergent assay conditions; cited from earlier work.
The next series concerns P. aeruginosa. Details: method as in PMID 6406266. As to conditions: cited from earlier work.
The subject of series [4] is FOF1 from M. smegmatis (MsFOF1). Details: method as in PMID 33299175. As to conditions: cited from earlier work.
Setting [5] is: WT, 38.5 mM selenite (Fig. S1 panel B).

Read-outs that look alike come from different tables or passages of the source.

With `CC[C@H]1/C=C/C=C/C[C@@H](C)[C@H](O)[C@@](C)(O)C(=O)[C@@H](C)[C@H](O)[C@@H](C)C(=O)[C@@H](C)[C@H](O)[C@@H](C)/C=C/C(=O)O[C@@H]2[C@H](C)[C@H](CC1)O[C@]1(CC[C@H](C)[C@H](C[C@@H](C)O)O1)[C@H]2C` [oligomycin], in the series on mitoFOF1, the “Effect on ATPase activity of membrane and detergent-solubilized mitoFOF1” value is given as “inhibited ATPase activity of both forms”.
Regarding `C(=NC1CCCCC1)=NC1CCCCC1` [DCCD, N,N′-dicyclohexylcarbodiimide], the “ATPase activity during the last 3 min of assays” value in [1] (38.5 mM selenite) is 0.85 U/mg; in [1] (no selenite) it was 0.20 (± 0.02) U/mg. For the same molecule, the inhibition at 100 µM in series [1] (read-out: Inhibition of ATPase activity) was determined as 73%.
Turning to “ε: purified WT ε subunit of E. coli FOF1 with N-terminal His6-tag, added exogenously”, the “Late rate (last 3 min of assay)” value in [1] (67 nM ε added after 9.5 μM ventA, 38.5 mM selenite (Fig. 5A #4)) is given as 0.28 U/mg; in series [1] (67 nM ε, 38.5 mM selenite (Fig. 5A #2)) it was 1.4 U/mg. Also, the “Immediate inhibition of ATPase activity” value in series [1] (excess ε (67 nM), without ventA, selenite present) is on record as ~ 30%. Also, the “Immediate inhibition of ventA-recovered ATPase activity” value in series [1] (excess ε added after 9.5 μM ventA, selenite present (Fig. 5A trace 4)) is listed as ~ 90%. In addition, the dissociation constant Kd on F1 was < 0.001 µM.
Regarding `O=[Se](O)O` [selenite], the “Activation of membrane ATPase” value is given as “fourfold” in series [2] (selenite, ε88-stop membranes) and “~ fourfold” in series [3] (selenite). Moreover, the results for the “100% ATPase (specific activity just before addition of ventA)” value in series [2] (ε88stop + 38.5 mM selenite) and in [1] (WT + 38.5 mM selenite) were 3.4 (± 0.5) U/mg and 2.3 (± 0.2) U/mg, respectively. For the same molecule, in series [1] (optimal selenite (38.5 mM), WT membranes), the “Stimulation of ATPase activity” value is on record as 2.8 fold.
On to `CCC(=O)C(C)C(O)C(C)CC(C)C1OC(=O)CC2(O)CC=C(C)C(O2)C(C)=CCCCC(OC2CC(O)C(O)C(C)O2)C=CC(C)CC1C` (stereo not shown) [ventB, venturicidin B], for which the “Reduction of Ki by selenite” value in series [1] (WT) was found to be 2.3 fold. In addition, in series [1] (setting [5]), the “y0 (ATPase at saturating venturicidin)” value is 28% (±7). Moreover, the “y1 (venturicidin-sensitive ATPase, best fit of early rates)” value is recorded as 73% (±6) in series [1] (setting [5]) and 136% (±7) in series [1] (WT, absence of selenite (Fig. S1 panel A), y0 fixed as 0). In addition, the “Ki for inhibition of early rate relative to respective Ki of ventA” value in [1] (WT, with or without selenite) is given as “≥ tenfold”. Moreover, the Ki in series [1] (setting [5]) was found to be 4 µM; in [1] (WT, absence of selenite (Fig. S1 panel A)), 9 µM.
On to Oligomycin A, for which, in the series on S. aureus, the “Adjuvant activity for polymyxin B” value is listed as “potent adjuvant”.
Regarding venturicidin, the IC50 with E. coli membrane ATPase was ~7 µM. Further, the “Decrease of cellular ATP” value in the series on P. aeruginosa (anaerobic fermentation of L-arginine) was “~ tenfold”. The “Time to eliminate Δψ and flagellar motility” value with P. aeruginosa (anaerobic) is ≤ 3.5 min. Further, the “Reduction of cellular ATP” value in the series with P. aeruginosa (during respiration) is on record as “~ fivefold”.
`[N-]=[N+]=[N-]` [azide]: the “Inhibition of ATPase activity” value is recorded as ~ 50% in series [1] (6 µM azide in the assay) and 80–90% in series [3] (excess azide). The “100% ATPase (specific activity just before addition of ventA)” value in series [1] (WT + 6 μM azide) is 0.42 (± 0.02) U/mg.
In the case of `COc1nc2ccc(Br)cc2cc1[C@@H](c1ccccc1)[C@@](O)(CCN(C)C)c1cccc2ccccc12` [BDQ, bedaquiline], the “Effect of micromolar BDQ on ATPase activity” value in [4] (micromolar BDQ) is recorded as “most activity was restored”. For the same molecule, the “Inhibition of ATPase” value in series [4] (nanomolar BDQ) is ~ 80%.
